In ChEMBL document CHEMBL1201862, “PubChem BioAssay data set” (2004):
Active and inactive are the calls of the source.

Experiments:
[1] = target: Voltage-dependent T-type calcium channel subunit alpha-1H (Homo sapiens, UniProt O95180); assay type: functional;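 note: channel activity triggered by adding a high calcium stimulation buffer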
Aminopeptidase N = target: T1, Aminopeptidase N (Plasmodium falciparum FcB1/Columbia, UniProt O96935); assay: malaria alanyl aminopeptidase activity blockers – biochemical, fluorogenic H-Leu-NHMec substrate, 1536-well (AID 1445); set-up: species or system Plasmodium falciparum 3D7, 3D7
T1 sequence (O96935 whole entry): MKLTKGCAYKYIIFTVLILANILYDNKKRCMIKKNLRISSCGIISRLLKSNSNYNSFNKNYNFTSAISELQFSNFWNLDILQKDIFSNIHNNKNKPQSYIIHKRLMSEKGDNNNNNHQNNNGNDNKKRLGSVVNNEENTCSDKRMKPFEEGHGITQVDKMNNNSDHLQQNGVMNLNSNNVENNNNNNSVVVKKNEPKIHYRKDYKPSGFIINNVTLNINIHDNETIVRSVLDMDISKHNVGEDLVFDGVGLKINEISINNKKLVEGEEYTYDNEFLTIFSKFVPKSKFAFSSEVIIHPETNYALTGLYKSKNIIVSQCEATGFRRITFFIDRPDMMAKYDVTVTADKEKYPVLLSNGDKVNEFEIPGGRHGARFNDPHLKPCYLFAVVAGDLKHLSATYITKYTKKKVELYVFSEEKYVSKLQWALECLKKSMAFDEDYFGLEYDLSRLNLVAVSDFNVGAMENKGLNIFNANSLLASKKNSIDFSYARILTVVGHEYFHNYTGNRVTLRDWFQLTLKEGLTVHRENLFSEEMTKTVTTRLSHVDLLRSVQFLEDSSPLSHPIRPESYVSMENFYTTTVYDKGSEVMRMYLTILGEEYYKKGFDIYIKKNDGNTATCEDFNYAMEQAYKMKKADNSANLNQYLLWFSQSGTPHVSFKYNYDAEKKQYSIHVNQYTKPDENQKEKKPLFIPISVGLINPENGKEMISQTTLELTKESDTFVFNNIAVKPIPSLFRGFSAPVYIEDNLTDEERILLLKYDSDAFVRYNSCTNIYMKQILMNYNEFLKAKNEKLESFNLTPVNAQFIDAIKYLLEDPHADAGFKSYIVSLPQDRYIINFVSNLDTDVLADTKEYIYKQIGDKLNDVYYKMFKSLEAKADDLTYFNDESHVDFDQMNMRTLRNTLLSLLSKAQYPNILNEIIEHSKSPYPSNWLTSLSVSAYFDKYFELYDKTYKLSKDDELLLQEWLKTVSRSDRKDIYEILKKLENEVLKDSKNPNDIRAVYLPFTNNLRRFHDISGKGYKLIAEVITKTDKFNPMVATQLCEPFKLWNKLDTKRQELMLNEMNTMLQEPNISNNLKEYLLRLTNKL

Prothrombin = Prothrombin (Bos taurus, UniProt P00735); assay: thrombin protease inhibitors – biochemical, fluorescence polarization, uHTS hits, dose response (AID 602369); assay type: functional
Albumin = Albumin (Bos taurus, UniProt P02769); assay: Counterscreen for inhibitors of T-cell receptor (TCR)-CD3 interaction: Fluorescence-based biochemical high throughput dose response assay to identify inhibitors of T-cell receptor (TCR)-CD3 interaction using a TAMRA-labeled BSA probe.; assay type: functional
[2] = target: T2, RNA-binding protein pos-1 (Caenorhabditis elegans, UniProt G5EF15); assay: disruptors of C. elegans POS-1 RNA interaction – biochemical, fluorescence polarization, dose response (AID 1964);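 note: purified POS-1 fused to maltose binding protein made in E. coli; potency of compounds blocking POS-1 binding to fluorescent RNA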
T2 sequence (G5EF15 whole entry): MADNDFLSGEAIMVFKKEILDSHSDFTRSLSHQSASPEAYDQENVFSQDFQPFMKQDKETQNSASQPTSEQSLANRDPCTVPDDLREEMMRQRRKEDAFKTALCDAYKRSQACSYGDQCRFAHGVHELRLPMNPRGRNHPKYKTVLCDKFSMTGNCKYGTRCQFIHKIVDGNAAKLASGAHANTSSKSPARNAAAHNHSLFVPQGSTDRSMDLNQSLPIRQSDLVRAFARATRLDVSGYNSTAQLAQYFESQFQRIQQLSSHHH

[3] = target: 26S proteasome non-ATPase regulatory subunit 14 (Homo sapiens, UniProt O00487); assay: inhibition of proteasome subunit RPN11 – biochemical, fluorescence polarization, uHTS hits, confirmation (AID 602368); assay type: functional
[4] = target: 72 kDa type IV collagenase (Homo sapiens, UniProt P08253); assay: Dose Response validation of uHTS RPN11 inhibitor hits using a MMP-2 Fluorescence assay.; assay type: functional
[5] = target: T3, Bifunctional protein GlmU (Mycobacterium tuberculosis, UniProt P9WMN3); assay: Inhibitors of Mycobacterial Glucosamine-1-phosphate acetyl transferase (GlmU). Secondary screen.; set-up: species or system Mycobacterium tuberculosis H37Rv
T3 sequence (P9WMN3 whole entry): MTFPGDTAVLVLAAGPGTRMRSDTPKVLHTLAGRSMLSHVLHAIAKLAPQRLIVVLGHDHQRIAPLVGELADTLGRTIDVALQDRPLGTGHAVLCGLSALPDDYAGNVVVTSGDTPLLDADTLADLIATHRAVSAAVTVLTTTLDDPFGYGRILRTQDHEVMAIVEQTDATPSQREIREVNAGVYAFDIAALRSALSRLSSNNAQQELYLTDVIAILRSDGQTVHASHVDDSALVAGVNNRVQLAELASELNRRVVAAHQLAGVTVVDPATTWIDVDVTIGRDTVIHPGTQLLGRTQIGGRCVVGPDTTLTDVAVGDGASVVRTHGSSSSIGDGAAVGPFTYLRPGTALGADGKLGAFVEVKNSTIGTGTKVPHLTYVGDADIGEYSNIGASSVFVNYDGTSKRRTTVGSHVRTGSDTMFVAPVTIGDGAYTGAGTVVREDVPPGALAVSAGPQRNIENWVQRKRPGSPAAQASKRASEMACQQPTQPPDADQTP

[6] = target: T4, Small ubiquitin-related modifier 1 (Homo sapiens, UniProt P63165); assay: SUMO1 protein interaction blockers, potency – biochemical, fluorescence polarization, uHTS hits, dose response (AID 624382); assay type: functional; details: read-out: IC50_Mean
[7] = target: Induced myeloid leukemia cell differentiation protein Mcl-1 (Homo sapiens, UniProt Q07820); assay type: functional
[8] = target: T5, RNA-editing ligase 1, mitochondrial (Trypanosoma brucei brucei, UniProt P86926); assay: inhibition of trypanosome RNA editing ligase – biochemical, fluorescence, Trypanosoma brucei, dose response (AID 1117295); assay type: functional
T5 sequence (P86926 whole entry): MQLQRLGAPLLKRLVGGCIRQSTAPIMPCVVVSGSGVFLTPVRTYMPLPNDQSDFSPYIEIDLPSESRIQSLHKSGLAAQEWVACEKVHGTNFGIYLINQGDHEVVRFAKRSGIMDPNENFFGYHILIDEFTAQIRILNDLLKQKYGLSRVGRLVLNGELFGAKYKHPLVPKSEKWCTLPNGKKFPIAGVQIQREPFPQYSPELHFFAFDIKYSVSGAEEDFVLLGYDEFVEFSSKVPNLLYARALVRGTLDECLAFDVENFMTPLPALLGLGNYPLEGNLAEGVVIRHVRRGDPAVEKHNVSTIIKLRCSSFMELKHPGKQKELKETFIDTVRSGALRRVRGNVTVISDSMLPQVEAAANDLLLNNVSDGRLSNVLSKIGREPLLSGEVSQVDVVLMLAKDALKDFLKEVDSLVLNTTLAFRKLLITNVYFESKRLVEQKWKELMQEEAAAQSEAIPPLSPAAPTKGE

[9] = target: Transitional endoplasmic reticulum ATPase (Homo sapiens, UniProt P55072); assay: p97 ATPase inhibitors, dose response, biochemical (AID 1534)
[10] = target: Transitional endoplasmic reticulum ATPase (Homo sapiens, UniProt P55072, C522A); assay: C522A mutant p97 ATPase inhibitors, dose response, counter-screen for p97 inhibitor project, biochemical, luminescence (AID 1544)
[11] = target: T4, Small ubiquitin-related modifier 1; assay: SUMO1 protein-protein binding blockers, potency – biochemical, FRET, dose response (AID 624383); assay type: functional; details: read-out: IC50_Mean
[12] = target: T6, Zinc finger protein mex-5 (Caenorhabditis elegans, UniProt Q9XUB2); assay: potency of MEX-5 RNA-binding blockers – biochemical, C. elegans, fluorescence polarization, dose response (AID 1960)
T6 sequence (Q9XUB2 whole entry): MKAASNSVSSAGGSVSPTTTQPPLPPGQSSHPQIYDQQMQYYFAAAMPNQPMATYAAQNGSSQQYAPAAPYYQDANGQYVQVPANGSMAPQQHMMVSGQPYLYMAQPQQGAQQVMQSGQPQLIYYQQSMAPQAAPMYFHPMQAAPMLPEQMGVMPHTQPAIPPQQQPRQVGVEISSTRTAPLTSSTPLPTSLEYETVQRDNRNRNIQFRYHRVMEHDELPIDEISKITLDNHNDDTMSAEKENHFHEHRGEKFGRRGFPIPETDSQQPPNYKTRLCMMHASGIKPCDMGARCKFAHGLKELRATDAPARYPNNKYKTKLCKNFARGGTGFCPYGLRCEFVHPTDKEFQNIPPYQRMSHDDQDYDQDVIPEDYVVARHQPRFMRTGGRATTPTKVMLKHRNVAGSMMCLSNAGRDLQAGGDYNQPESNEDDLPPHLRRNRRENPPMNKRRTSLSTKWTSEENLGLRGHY

CAAX prenyl protease 2 = target: T7, CAAX prenyl protease 2 (Saccharomyces cerevisiae S288c, UniProt Q03530); assay type: biochemical
T7 sequence (Q03530 whole entry): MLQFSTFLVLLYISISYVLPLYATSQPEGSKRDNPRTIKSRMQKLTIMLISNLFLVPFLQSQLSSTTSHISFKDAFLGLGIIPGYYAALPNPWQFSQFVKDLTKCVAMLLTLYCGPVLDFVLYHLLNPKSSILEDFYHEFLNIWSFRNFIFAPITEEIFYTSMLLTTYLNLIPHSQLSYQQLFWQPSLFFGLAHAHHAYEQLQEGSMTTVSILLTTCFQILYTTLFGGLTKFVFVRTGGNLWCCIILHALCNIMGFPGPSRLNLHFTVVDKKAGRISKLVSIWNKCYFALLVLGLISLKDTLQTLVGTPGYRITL

Trypsin = Trypsin (Sus scrofa, UniProt P00761); assay: trypsin protease activity blockade – biochemical, quenched peptide fluorescence, cherry-pick, selectivity assay for Rce1 protease inhibitor project, dose response (AID 488789)
Genome polyprotein = Genome polyprotein (dengue virus type 2, UniProt P29990); assay: flavivirus cap methylation enzyme inhibition – biochemical, confirmation dose response, primary screen (AID 588689); assay type: functional
Hexokinase HKDC1 = target: T8, Hexokinase HKDC1 (Homo sapiens, UniProt Q2TB90); assay: inhibition of HKDC1 glucose phosphorylation – biochemical, W721R variant, dose response (AID 504729); assay type: functional
T8 sequence (Q2TB90 whole entry): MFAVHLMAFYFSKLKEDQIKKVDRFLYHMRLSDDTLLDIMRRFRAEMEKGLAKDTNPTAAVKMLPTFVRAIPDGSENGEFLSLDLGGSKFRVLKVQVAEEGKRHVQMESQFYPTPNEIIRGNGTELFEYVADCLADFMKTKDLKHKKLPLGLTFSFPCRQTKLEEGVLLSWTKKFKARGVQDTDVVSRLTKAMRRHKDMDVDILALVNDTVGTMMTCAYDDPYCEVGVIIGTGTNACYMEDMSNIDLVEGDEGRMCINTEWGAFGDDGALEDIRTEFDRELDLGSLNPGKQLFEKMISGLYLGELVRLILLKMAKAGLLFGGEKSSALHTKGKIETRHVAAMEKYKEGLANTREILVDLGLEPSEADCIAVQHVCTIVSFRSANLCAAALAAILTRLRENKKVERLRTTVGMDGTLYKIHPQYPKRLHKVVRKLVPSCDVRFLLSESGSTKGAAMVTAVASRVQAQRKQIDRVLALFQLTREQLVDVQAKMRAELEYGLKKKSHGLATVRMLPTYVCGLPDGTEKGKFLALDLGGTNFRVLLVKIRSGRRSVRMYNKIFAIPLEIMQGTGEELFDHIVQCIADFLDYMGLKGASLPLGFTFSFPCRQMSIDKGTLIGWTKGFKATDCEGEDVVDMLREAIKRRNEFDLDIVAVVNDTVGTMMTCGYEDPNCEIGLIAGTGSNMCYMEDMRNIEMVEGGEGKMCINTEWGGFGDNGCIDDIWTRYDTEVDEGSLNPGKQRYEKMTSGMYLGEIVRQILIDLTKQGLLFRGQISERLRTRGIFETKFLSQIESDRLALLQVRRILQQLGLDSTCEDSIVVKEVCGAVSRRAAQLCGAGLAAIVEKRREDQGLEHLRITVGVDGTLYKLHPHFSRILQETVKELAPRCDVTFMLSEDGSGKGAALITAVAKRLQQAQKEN

[13] = target: Glucose-6-phosphate 1-dehydrogenase (Homo sapiens, UniProt P11413); assay: inhibition of Homo sapiens G6PD, dose series – biochemical, fluorescence, selectivity assay for P. falciparum G6PD inhibitor project, dose response (AID 504792); assay type: functional
Beta-galactosidase = Beta-galactosidase (Escherichia coli, UniProt Q8VNN2); assay: detection-enzyme interference by beta-gal modulators – biochemical, E. coli enzyme, set 3, artefact control for CCR6 antagonist project, dose response (AID 504712); assay type: functional
[14] = viability loss in THP-1 monocytes – THP-1 cells, cytotoxicity control for Vif-APOBEC3G degradation inhibitor project, dose response (AID 1117359); assay type: functional; details: THP-1

T4 sequence (P63165 whole entry): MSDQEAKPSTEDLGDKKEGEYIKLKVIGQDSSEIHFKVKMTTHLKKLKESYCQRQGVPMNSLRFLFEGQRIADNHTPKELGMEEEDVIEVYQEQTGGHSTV
Sequence of Voltage-dependent T-type calcium channel subunit alpha-1H (O95180 whole entry): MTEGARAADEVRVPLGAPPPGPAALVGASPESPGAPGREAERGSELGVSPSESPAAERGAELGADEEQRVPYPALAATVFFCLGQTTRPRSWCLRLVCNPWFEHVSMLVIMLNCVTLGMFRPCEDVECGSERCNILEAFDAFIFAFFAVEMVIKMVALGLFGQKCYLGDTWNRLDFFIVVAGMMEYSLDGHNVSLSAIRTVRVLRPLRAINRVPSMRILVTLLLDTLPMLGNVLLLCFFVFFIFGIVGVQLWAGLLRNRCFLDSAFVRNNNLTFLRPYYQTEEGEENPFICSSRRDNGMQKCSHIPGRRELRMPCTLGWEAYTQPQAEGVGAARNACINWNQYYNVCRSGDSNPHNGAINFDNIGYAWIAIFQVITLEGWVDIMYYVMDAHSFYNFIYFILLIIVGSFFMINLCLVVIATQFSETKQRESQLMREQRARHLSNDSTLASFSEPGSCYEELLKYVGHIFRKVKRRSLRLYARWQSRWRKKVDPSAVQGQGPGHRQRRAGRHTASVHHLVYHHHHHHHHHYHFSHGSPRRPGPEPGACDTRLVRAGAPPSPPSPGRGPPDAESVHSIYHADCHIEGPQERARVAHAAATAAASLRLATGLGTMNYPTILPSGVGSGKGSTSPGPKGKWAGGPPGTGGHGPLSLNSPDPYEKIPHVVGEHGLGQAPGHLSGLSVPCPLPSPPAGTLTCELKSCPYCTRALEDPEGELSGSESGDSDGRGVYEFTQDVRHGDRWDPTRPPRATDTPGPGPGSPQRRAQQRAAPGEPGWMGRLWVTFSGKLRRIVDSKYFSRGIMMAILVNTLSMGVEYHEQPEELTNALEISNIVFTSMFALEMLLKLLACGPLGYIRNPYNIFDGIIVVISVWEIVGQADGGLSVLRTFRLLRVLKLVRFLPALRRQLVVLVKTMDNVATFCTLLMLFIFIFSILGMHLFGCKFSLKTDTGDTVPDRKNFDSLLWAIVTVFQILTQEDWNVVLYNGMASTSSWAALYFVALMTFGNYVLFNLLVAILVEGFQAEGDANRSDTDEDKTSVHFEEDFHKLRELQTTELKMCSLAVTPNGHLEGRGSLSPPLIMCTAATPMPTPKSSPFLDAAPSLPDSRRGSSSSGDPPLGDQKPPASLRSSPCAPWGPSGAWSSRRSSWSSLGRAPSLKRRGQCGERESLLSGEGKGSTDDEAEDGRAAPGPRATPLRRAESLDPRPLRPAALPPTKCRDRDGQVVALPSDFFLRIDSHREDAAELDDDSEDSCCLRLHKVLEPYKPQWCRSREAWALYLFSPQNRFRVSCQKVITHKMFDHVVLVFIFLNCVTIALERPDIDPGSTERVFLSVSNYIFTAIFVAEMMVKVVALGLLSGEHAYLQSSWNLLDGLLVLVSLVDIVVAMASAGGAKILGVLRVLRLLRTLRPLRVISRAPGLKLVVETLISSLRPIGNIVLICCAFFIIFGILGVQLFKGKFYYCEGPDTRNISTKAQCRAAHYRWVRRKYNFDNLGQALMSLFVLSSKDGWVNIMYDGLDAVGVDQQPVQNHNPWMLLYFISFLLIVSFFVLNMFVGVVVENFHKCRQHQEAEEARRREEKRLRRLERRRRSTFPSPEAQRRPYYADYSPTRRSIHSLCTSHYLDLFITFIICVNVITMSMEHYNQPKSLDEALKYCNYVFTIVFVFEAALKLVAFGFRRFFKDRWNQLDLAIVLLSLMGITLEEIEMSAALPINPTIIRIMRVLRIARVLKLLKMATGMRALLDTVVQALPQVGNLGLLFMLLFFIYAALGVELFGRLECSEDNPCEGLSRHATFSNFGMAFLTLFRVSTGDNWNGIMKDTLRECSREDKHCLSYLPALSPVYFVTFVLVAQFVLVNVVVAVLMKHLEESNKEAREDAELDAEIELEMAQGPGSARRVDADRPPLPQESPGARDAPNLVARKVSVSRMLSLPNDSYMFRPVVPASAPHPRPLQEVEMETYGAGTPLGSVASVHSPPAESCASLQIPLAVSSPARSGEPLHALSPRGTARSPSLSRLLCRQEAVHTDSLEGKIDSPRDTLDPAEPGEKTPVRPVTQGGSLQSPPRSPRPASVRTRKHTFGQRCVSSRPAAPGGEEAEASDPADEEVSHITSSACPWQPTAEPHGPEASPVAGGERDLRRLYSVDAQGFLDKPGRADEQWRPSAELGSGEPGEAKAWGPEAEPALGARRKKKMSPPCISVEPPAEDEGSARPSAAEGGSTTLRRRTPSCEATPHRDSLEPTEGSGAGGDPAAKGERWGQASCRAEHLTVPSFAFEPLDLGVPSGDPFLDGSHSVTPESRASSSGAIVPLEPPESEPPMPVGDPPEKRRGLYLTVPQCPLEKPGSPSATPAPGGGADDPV
Sequence of Induced myeloid leukemia cell differentiation protein Mcl-1 (Q07820 whole entry): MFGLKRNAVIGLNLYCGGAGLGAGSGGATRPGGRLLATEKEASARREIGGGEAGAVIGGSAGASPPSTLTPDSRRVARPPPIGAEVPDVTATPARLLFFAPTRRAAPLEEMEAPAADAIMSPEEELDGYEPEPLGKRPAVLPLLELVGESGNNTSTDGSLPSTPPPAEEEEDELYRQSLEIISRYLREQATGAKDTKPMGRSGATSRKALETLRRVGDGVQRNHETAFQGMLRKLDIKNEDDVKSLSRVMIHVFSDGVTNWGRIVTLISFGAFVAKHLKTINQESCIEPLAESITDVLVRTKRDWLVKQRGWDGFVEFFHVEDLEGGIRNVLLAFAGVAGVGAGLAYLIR
Sequence of Trypsin (P00761 whole entry): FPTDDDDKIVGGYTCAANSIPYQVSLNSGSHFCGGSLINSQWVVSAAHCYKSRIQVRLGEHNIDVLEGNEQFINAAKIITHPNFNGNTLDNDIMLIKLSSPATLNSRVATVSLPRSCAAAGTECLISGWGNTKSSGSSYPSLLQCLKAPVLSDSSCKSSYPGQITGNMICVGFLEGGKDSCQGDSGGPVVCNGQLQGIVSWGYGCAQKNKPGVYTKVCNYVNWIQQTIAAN
Sequence of Transitional endoplasmic reticulum ATPase (Homo sapiens, UniProt P55072, C522A) (P55072 2-806 C522A limits assumed): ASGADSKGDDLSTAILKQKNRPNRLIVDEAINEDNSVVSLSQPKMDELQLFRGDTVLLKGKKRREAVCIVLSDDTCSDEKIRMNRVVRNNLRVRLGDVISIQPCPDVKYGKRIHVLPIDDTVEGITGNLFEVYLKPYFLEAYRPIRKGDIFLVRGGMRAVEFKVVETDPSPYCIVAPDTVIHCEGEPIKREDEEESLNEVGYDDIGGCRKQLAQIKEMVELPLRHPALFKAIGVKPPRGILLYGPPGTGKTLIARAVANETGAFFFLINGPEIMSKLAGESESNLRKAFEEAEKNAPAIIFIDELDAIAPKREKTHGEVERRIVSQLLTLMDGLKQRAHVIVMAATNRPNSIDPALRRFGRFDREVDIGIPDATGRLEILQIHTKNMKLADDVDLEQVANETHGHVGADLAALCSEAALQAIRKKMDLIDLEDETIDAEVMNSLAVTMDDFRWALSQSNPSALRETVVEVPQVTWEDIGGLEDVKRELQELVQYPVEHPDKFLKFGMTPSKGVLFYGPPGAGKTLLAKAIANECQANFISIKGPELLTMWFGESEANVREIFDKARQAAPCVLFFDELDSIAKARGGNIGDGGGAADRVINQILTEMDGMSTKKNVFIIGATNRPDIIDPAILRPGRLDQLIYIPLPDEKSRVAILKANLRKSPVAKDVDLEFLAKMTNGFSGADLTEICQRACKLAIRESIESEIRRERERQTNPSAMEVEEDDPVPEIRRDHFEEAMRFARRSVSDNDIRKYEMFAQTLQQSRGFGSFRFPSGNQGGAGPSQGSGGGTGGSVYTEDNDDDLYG
Sequence of Glucose-6-phosphate 1-dehydrogenase (P11413 whole entry): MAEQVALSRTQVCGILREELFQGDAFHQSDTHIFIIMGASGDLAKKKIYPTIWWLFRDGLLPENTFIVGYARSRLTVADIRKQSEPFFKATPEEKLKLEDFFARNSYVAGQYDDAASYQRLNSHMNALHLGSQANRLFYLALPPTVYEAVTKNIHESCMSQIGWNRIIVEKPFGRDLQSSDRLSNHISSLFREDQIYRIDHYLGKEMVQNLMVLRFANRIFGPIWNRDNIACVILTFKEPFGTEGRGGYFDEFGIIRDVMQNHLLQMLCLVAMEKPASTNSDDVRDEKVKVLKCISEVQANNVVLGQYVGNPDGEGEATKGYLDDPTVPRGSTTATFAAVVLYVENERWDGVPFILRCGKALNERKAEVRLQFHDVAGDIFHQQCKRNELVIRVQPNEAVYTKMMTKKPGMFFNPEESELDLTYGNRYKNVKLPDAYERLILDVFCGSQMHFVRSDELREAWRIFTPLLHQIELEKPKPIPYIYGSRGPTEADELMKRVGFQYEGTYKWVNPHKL
Sequence of 26S proteasome non-ATPase regulatory subunit 14 (O00487 whole entry): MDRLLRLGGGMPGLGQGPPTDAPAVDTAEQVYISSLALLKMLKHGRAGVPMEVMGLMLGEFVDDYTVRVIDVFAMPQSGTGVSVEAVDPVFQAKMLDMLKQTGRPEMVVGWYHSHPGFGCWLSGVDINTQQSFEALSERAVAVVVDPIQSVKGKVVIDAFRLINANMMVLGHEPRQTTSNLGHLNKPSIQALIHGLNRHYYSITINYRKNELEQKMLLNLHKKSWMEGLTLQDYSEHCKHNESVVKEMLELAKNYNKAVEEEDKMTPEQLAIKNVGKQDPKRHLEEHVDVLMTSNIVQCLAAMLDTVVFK

## CCCOc1cc(C)c(S(=O)(=O)n2ccc(C)n2)cc1C
[1]
  EC50: 5.47 µM (active)

## Cc1n[nH]c(S/C(=C\c2ccc(-c3ccc(C(=O)O)c(Cl)c3)o2)C(=O)O)n1
Aminopeptidase N
  IC50: 11.3 µM (active)
Prothrombin
  IC50: 9.79 µM (active)
Albumin
  IC50: > 94.1 µM (inactive)
[2]
  EC50: 1.76 µM (active)
[3]
  IC50: 9.04 µM (active)
[4]
  IC50: > 100 µM (inactive)
[5]
  IC50: 61.9 µM (active)
[6]
  IC50: > 66.6 µM (inactive)
[7]
  IC50: 2.35 µM (active)
[8]
  IC50: 22.9 µM (inactive)
[9]
  IC50: > 50 µM (not active)
[10]
  IC50: > 50 µM (not active)
[11]
  IC50: 13.1 µM (active)
[12]
  EC50: 1.38 µM (active)

## Cc1cc(-c2ccccc2)n2nc(C)c(C#N)c2n1
CAAX prenyl protease 2
  AC50: 15.5 µM (active)
Trypsin
  AC50: 3.3 µM (active)

## COC1=C(OC)C(=O)C(Sc2ccc3ccccc3c2)=CC1=O
Genome polyprotein
  IC50: 5.09 µM (active)
Hexokinase HKDC1
  IC50: 3.33 µM (active)
[13]
  IC50: 18.7 µM (active)
Beta-galactosidase
  IC50: > 66.6 µM (inactive)
[14]
  CC50: > 40 µM (active)
